Results as given in patent US10787430B2, “Hemoglobin modifier compounds and uses thereof” (FronThera U.S. Pharmaceuticals LLC, priority 2016, dated 2020).

Biological target: T1, hemoglobin (20% hct blood) (Homo sapiens, UniProt P68871+P69905)
T1 construct: Normal whole blood was collected from adult healthy donors; from tissue; host or cells: normal human whole blood (red blood cells), adult healthy donors
Assay: Dose-dependent whole blood OEC studies
Type: cell-based
Conditions: 37° C., 1 hr; for delta p50 0.2 mM: 0.2 mM compound; for delta p50 0.5 mM: 0.5 mM compound
Description: Materials: Normal whole blood was collected from adult healthy donors at the Virginia Commonwealth University after informed consent. The use of these human samples is in accordance with regulations of the IRB for Protection of Human Subjects. Compounds (50 mM-100 mM concentration in DMSO) were stored at 15° C. or room temperature until use.
To 2 ml 20% hct blood, 0.2 or 0.5 or 1 mM compound was added and kept shaking at 37° C. for 1 hr. OEC analysis was performed as described above to determine partial pressure of oxygen (pO2) and Hb oxygen saturation values (sO2). A control without compound but containing equivalent amount of DMSO was performed (1%). GBT440 was used as a positive control. Table 2 below lists the delta p50% values.

T1 sequence (P69905 2-142 limits assumed): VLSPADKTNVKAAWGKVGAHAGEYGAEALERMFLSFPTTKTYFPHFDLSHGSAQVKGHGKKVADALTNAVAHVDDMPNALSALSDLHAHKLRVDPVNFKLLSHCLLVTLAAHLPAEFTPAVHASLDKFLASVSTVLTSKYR
T1 sequence (P68871 2-147 limits assumed): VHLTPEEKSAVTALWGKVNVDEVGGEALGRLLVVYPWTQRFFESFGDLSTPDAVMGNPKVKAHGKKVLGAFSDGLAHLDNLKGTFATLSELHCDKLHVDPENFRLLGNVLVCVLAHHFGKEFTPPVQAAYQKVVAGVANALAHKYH

| Compound | delta p50 0.2 mM | delta p50 0.5 mM |
| --- | --- | --- |
| CC(C)n1nccc1-c1ncncc1COc1ccc2cccnc2c1C=O [Example 55, 7-((4-(1-isopropyl-1H-pyrazol-5-yl)pyrimidin-5-yl)methoxy)quinoline-8-carbaldehyde] | −5.30% | −8.80% |
| CC(C)n1nccc1-c1ncncc1COc1ccc2cccnc2c1C=O [Example 56, 7-((4-(1-isopropyl-1H-pyrazol-5-yl)pyrimidin-5-yl)methoxy)quinoline-8-carbaldehyde] | −1.60% | −11.30% |
| CC(C)n1ncc(F)c1-c1ncncc1COc1cccc(O)c1C=O [Example 57, 2-((4-(4-fluoro-1-isopropyl-1H-pyrazol-5-yl)pyrimidin-5-yl)methoxy)-6-hydroxybenzaldehyde] | −4.90% | −7.60% |
| CC(C)n1nccc1-c1cccnc1COc1ccc2ncoc2c1C=O [Example 58, 6-((3-(1-isopropyl-1H-pyrazol-5-yl)pyridin-2-yl)methoxy)benzo[d]oxazole-7-carbaldehyde] | −14.30% | −34.30% |
| CC(C)n1nccc1-c1c(COc2cccc(O)c2C=O)ncn1C [Example 63, 2-hydroxy-6-((5-(1-isopropyl-1H-pyrazol-5-yl)-1-methyl-1H-imidazol-4-yl)methoxy)benzaldehyde] | −7.00% | −15.20% |
| CC(C)n1nccc1-c1scnc1COc1cccc(O)c1C=O [Example 64, 2-hydroxy-6-((5-(1-isopropyl-1H-pyrazol-5-yl)thiazol-4-yl)methoxy)benzaldehyde] | −10.00% | −31.00% |
| CC(C)n1nccc1-c1ncsc1COc1cccc(O)c1C=O [Example 65, 2-hydroxy-6-((4-(1-isopropyl-1H-pyrazol-5-yl)thiazol-5-yl)methoxy)benzaldehyde] | −11.20% | −36.20% |
| CC(C)n1nccc1-c1ocnc1COc1cccc(O)c1C=O [Example 66, 2-hydroxy-6-((5-(1-isopropyl-1H-pyrazol-5-yl)oxazol-4-yl)methoxy)benzaldehyde] | −5.70% | −16.50% |
| CC(C)n1nccc1-c1ncoc1COc1cccc(O)c1C=O [Example 67, 2-hydroxy-6-((4-(1-isopropyl-1H-pyrazol-5-yl)oxazol-5-yl)methoxy)benzaldehyde] | −6.80% | −25.30% |
| Cc1nc(COc2cccc(O)c2C=O)c(-c2ccnn2C(C)C)o1 [Example 68, 2-hydroxy-6-((5-(1-isopropyl-1H-pyrazol-5-yl)-2-methyloxazol-4-yl)methoxy)benzaldehyde] | −8.70% | −13.00% |
| CC(C)n1nccc1-c1ncn(C)c1COc1cccc(O)c1C=O [Example 69, 2-hydroxy-6-((4-(1-isopropyl-1H-pyrazol-5-yl)-1-methyl-1H-imidazol-5-yl)methoxy)benzaldehyde] | −21.40% | −41.80% |
| Cc1nc(-c2ccnn2C(C)C)c(COc2cccc(O)c2C=O)s1 [Example 70, 2-hydroxy-6-((4-(1-isopropyl-1H-pyrazol-5-yl)-2-methylthiazol-5-yl)methoxy)benzaldehyde] | −10.40% | −21.90% |
| [2H]C([2H])(Oc1cccc(O)c1C=O)c1nccnc1-n1ccnc1C(C)C [Example 72, 2-hydroxy-6-((3-(2-isopropyl-1H-imidazol-1-yl)pyrazin-2-yl)methoxy-d2)benzaldehyde] | −5.10% | −16.80% |
| CC(C)n1nccc1-c1nccc(F)c1COc1cccc(O)c1C=O [Example 74, 2-((4-fluoro-2-(1-isopropyl-1H-pyrazol-5-yl)pyridin-3-yl)methoxy)-6-hydroxybenzaldehyde] | −15.8% | −48.4% |
